Test results: US10174013B2, “Benzimidazole derivatives as kinase inhibitors” (SELVITA S.A., priority 2012, dated 2019)
Structures can show the parent of a compound that is named as a salt. Where two headings read alike, the source gives them in different places.

Columns and labels:
FLT3(ITD) = FLT3(ITD) (Homo sapiens, UniProt P36888, ITD); assay: Binding to FLT3(ITD) mutant (DiscoveRx)
Protocol: (§1) Selected compounds were also tested for their binding properties against FLT3 kinase mutants using suitable in vitro assays (performed according to standard assays at DiscoveRx Corporation). The compounds show strong binding to the main oncogenic mutants of the FLT3 kinase, see Table 1B.

MOLM13 cells = assay: Growth inhibition, MTS assay, MOLM13; assay type: cell-based, Human; conditions: 72 hours, MTS cell viability, read-out: MOLM 13 ED50
Description: The following cell lines, were obtained and used in tests as outlined below: • Human myelomonocytic, biphenotypic leukemia MV4-11 cells (harboring a Flt3-ITD mutation); • Human Acute Myeloid Leukemia MOLM16 cells; • Human Acute Myeloid Leukemia MOLM13 cells (harboring a Flt3-ITD mutation); • Human Myeloid Leukemia KG-1 cells; • Human erythroleukemia HEL92 cells; • Human mantle cell lymphoma Jeko-1 cells; • Human hepatocellular carcinoma HepG2 cells; and • Human colon adenocarcinoma SW-480 cells.
The assays were carried out according to the following protocol, which is described as an example for the MV4-11 cells:
Ten thousand MV4-11 cells were inoculated into each well of a 96-well microplate (manufactured by Corning Corp.) using Iscove's MDM medium (culture medium) containing 10% fetal calf serum (FCS). The same day, a dimethyl sulfoxide (DMSO) solution of each test compound prepared in a concentration of 10 mmol/L was further diluted with DMSO to the desired concentrations (0.1, 0.5, 1, 2.5, 5 and 10 micromol/L), and the diluted solution was added to each well. The individual wells were further cultured in 5% carbon dioxide at 37° C. for 72 hours. […] Briefly, 10 μl MTS (3-(4,5-Dimethyl-2-thiazolyl)-5-(carboxymethoxyphenyl)-2-(4-sulfophenyl)-2H-tetrazolium was added to each well, and culturing was performed in 5% carbon dioxide at 37° C. for 2 hours. After this incubation and using a microplate spectrophotometer (Synergy 2 multi-mode microplate reader (BioTek)), the absorbance of each well was measured at 490 nm. The value for cells not incubated with a test compound was designated as 100%. By comparing these values with the absorbance difference obtained at the well in which each test compound was added, the cell viability (% viability) after treatment with the test compound was calculated.

FLT3(D835H) = FLT3(D835H) (Homo sapiens (Human), UniProt P36888, D835H); assay: Binding to FLT3(D835H) mutant (DiscoveRx)
Protocol: as §1

FLT3-ITD = assay: ADP-Glo Kinase Assay, Flt3 ITD; assay type: biochemical, Human; conditions: 1 μM compound
Protocol: Compounds of the present invention were tested for their inhibitory activity against Pim-1, Pim-2, Pim-3, Flt3 wt, Flt3 ITD, CDK2/E and DYRK1. The testing of the compounds was carried out using the ADP-Glo™ Kinase Assay from Promega Corporation (Madison, Wis., USA).
The ADP-Glo™ Kinase Assay is a luminescent ADP detection assay to measure kinase activity by quantifying the amount of ADP produced during a kinase reaction. The kinase assay is performed in kinase assay buffer (5 mM MOPS, pH 7.5, 5 mM MgCl2, 0.4 mM EDTA, 1.5 mM DTT). Test samples initially dissolved in DMSO at 10 mM were diluted with the assay buffer to 1000 nM. A 30 μL volume/well of a mixture of substrates containing ATP (final ATP concentration in each kinase assay was equal to its apparent ATP Km).
The assay was performed in two steps: first, after the kinase reaction, an equal volume of ADP-Glo™ Reagent was added to terminate the kinase reaction and deplete the remaining ATP. Second, the Kinase Detection Reagent was added to simultaneously convert ADP to ATP and allowed the newly synthesized ATP to be measured using a luciferase/luciferin reaction. The luminescent signal generated was proportional to the ADP concentration produced and was correlated with kinase activity. A microplate spectrophotometer (Synergy 2 multi-mode microplate reader [BioTek]) was used for detecting the luminescence. The data was normalized and the percent of inhibition was obtained according to the following equation: […]

MV4-11 = assay: Combination study with anti-cancer agents, cell viability, MV4-11; conditions: for ED50 value in MV4-11: single agent, used as fixed concentration in combination study; for Effect of combination: 72 hours
Protocol: (§2) After this incubation, a cell viability assay was carried out according to the Manufacturer's instructions (CellTiter 96®AQueous Non-Radioactive Cell Proliferation Assay, Promega). The results were expressed as percentage of viable cells upon treatment with the individual drugs or the combination compared to the vehicle (DMSO) treated cells.

Mino = assay: Combination study with anti-cancer agents, cell viability, Mino
Protocol: as §2

[1] = system: Pim kinase biomarkers in MV4-11 cells; assay: Pim-kinase biomarkers in MV4-11 cells; assay type: cell-based, Human; conditions: 0.25-5 μM, 4 and 24 h
Protocol: The efficacy of compounds 1A and 2A on Pim kinase-inhibition was tested in MV4-11 cells (see above). Cells were treated with each compound at concentrations of 0.25, 0.5, 1, 2.5 and 5 μM for 4 and 24 h. The positive control Ref A (the commercially available inhibitor SGI-1776 [obtained from Selleck Bio]) was used at a concentration of 5 μM. DMSO (Dimethyl sulfoxide) was used as a negative control. The levels of the following classical Pim-1 kinase biomarkers were assessed: c-Myc, phospho-4EBP1 (Ser65, Thr37&46) and phosphorylated S6 (Ser235). […] Also, the levels of pro-apoptotic and pro-survival biomarkers were assessed. First, induction of apoptosis, recognizable as an appearance and increased expression of cleaved form of the PARP protein, was observed, both at 4 and 24 hours after compound stimulation at high concentrations. […] Levels of tubulin were assessed as a reference loading control.
The efficacy of compound 1BI on Pim kinase-inhibition was tested in MV4-11 cells. The cells were treated with compound 1BI at concentrations of 0.25, 0.5, 1, 2.5 and 5 μM for 4 and 24 h. The positive controls Ref. A (SGI-1776, see above) and Ref. B (the commercially available inhibitor Sunitinib [obtained from Ark Pharm]) were used at 5 μM concentration. DMSO (Dimethyl sulfoxide) was used as a negative control. The levels of the following classical Pim-1 kinase biomarkers were assessed: c-myc, phospho-4EBP1 (Ser65, Thr37&46) and phosphorylated S6 (Ser235/236). […] The levels of pro-apoptotic and pro-survival biomarkers were also assessed. […] Levels of tubulin were assessed as a reference loading control.

SMILES | Kd (FLT3(ITD)) [nM] | IC50 (MOLM13 cells; Homo sapiens, MOLM-13) [nM] | Kd (FLT3(D835H)) [nM] | Flt3ITD % INH (1 μM) (FLT3-ITD) [%] | ED50 value in MV4-11 (MV4-11) [nM] | Effect of combination (MV4-11; with CAL-101, MV4-11 (Acute myeloid leukemia)) | ED50 value in Mino (Mino; single agent, used as fixed concentration in combination study) [nM] | Effect of combination (Mino; with PD0332991, Mino (Mantle cell lymphoma), 72 hours) | Mcl-1 pro-survival protein level [1] | induction of apoptosis (cleaved form of PARP protein) [1] | levels of c-myc protein [1] | levels of phosphorylated 4EBP1 (Ser65, Thr37&46) [1] | levels of phosphorylated S6 [1] | levels of phosphorylated p44/42 (Erk1/2), Flt3 biomarker [1] | IC50 (MOLM13 cells) [nM] | Effect of combination (MV4-11; with C (Cytarabine), MV4-11 (Acute myeloid leukemia)) | Effect of combination (MV4-11; with V (Vosaroxin), MV4-11 (Acute myeloid leukemia))
CCn1c(N2CCNCC2)nc2c([N+](=O)[O-])c(Br)c(Br)cc21 [Example 1A, 5,6-dibromo-1-ethyl-4-nitro-2-(piperazin-1-yl)-1H-1,3-benzodiazole hydrochloride] | 74 | 700 | 120 | 81 | 500 | Synergistic | 1700 | Synergistic | dosed-dependent protein down-regulation | observed | downregulated | downregulated | downregulated | downregulated |  |  | 
CC(C)n1c(N2CCNC[C@H]2C)nc2c([N+](=O)[O-])c(Br)c(Br)cc21 [Example 1AX] |  |  |  | 96 |  |  |  |  |  |  |  |  |  |  | 60 |  | 
CC(C)n1c(N2CC[C@@H](N)C2)nc2c(C#N)c(Br)c(Br)cc21 [Example 1BI] |  | 3250 |  |  |  |  |  |  | dosed-dependent protein down-regulation | observed in the highest concentration at 4 hours | down-regulated | down-regulated | diminished almost completely | downregulated |  |  | 
CC(C)n1c(N2CCNCC2)nc2c([N+](=O)[O-])c(Br)c(Br)cc21 [Example 2A, 5,6-dibromo-4-nitro-2-(piperazin-1-yl)-1-(propan-2-yl)-1H-1,3-benzodiazole hydrochloride] | 18 | 250 |  |  |  |  |  |  |  |  |  |  |  |  |  |  | 
CC(C)n1c(C2CCNCC2)nc2c([N+](=O)[O-])c(Br)c(Br)cc21 [Example 26A, 5,6-dibromo-4-nitro-2-(piperidin-4-yl)-1-(propan-2-yl)-1H-1,3-benzodiazole] |  | 320 |  | 93 | 100 |  |  |  |  |  |  |  |  |  |  | Synergistic | Synergistic
